# Test results as given in ChEMBL document CHEMBL1152592, “Design, synthesis and biological evaluations of novel 7-[3-(1-aminocycloalkyl)pyrrolidin-1-yl]-6-desfluoro-8-methoxyquinolones with potent antibacterial activity against multi-drug resistant Gram-positive bacteria” (Bioorg Med Chem, 2009).
# How the values were obtained:
# Enterococcus faecalis [1] = assay: Antibacterial activity against vancomycin-resistant Enterococcus faecalis after 18 hrs by twofold microbroth dilution method; assay type: functional
# Staphylococcus aureus [2] = assay: Antibacterial activity against ciprofloxacin, methicillin-resistant Staphylococcus aureus after 18 hrs by twofold microbroth dilution method; assay type: functional
# Streptococcus pneumoniae [3] = assay: Antibacterial activity against penicillin-intermediate resistant Streptococcus pneumoniae after 18 hrs by twofold microbroth dilution method; assay type: functional
# Enterococcus faecium = assay: Antibacterial activity against vancomycin-resistant Enterococcus faecium after 18 hrs by twofold microbroth dilution method; assay type: functional
# Streptococcus mitis = assay: Antibacterial activity against Streptococcus mitis IID685 after 18 hrs by twofold microbroth dilution method; assay type: functional; details: IID685, 18 h
# [4] = Inhibition of Staphylococcus aureus wild type DNA topoisomerase 4
# [5] = Inhibition of Staphylococcus aureus DNA topoisomerase 4 Ser80Phe mutant
# [6] = test system: Staphylococcus epidermidis; assay: Antibacterial activity against Staphylococcus epidermidis 56500 after 18 hrs by twofold microbroth dilution method; assay type: functional; details: Staphylococcus epidermidis, 56500, 18 h
# Enterococcus faecalis [7] = assay: Antibacterial activity against Enterococcus faecalis ATCC 19433 after 18 hrs by twofold microbroth dilution method; assay type: functional; details: ATCC19433, 18 h
# Escherichia coli = assay: Antibacterial activity against Escherichia coli NIHJ after 18 hrs by twofold microbroth dilution method; assay type: functional
# Streptococcus pyogenes = assay: Antibacterial activity against Streptococcus pyogenes G-36 after 18 hrs by twofold microbroth dilution method; assay type: functional; details: G-36, 18 h
# Streptococcus pneumoniae [8] = assay: Antibacterial activity against Streptococcus pneumoniae J-24 after 18 hrs by twofold microbroth dilution method; assay type: functional; details: J-24, 18 h
# Staphylococcus aureus [9] = assay: Antibacterial activity against levofloxacin, methicillin-resistant Staphylococcus aureus after 18 hrs by twofold microbroth dilution method; assay type: functional
# Pseudomonas aeruginosa = assay: Antibacterial activity against Pseudomonas aeruginosa PAO1 after 18 hrs by twofold microbroth dilution method; assay type: functional; details: PAO1, 18 h
# Staphylococcus aureus [10] = assay: Antibacterial activity against Staphylococcus aureus FDA 209-P after 18 hrs by twofold microbroth dilution method; assay type: functional
# Klebsiella pneumoniae = assay: Antibacterial activity against Klebsiella pneumoniae type 2 after 18 hrs by twofold microbroth dilution method; assay type: functional; details: type 2, 18 h
# Mus musculus [11] = assay: Toxicity in Slc:ddY mouse at 50 mg/kg, iv; assay type: organism-based; design: dose 50 mg/kg, route intravenous; details: in vivo
# Mus musculus [12] = assay: Toxicity in Slc:ddY mouse assessed as micronucleated reticulocyte in blood at 100 mg/kg, iv after 48 hrs of treatment by fluorescence microscopy; assay type: organism-based; design: dose 100 mg/kg, route intravenous; details: in vivo
# Mus musculus [13] = assay: Toxicity in Slc:ddY mouse at 150 mg/kg, iv; assay type: organism-based; design: dose 150 mg/kg, route intravenous; details: in vivo
# Mus musculus [14] = assay: Toxicity in Slc:ddY mouse at 100 mg/kg, iv; assay type: organism-based; design: dose 100 mg/kg, route intravenous; details: in vivo
# [15] = Aqueous […] of the compound; assay type: physicochemical; details: aqueous (not further specified)
# DNA gyrase subunit A = DNA gyrase subunit A (Staphylococcus aureus, UniProt P20831, S84L); assay: Inhibition of Staphylococcus aureus DNA gyrase Ser84Leu mutant
# DNA gyrase = DNA gyrase (Staphylococcus aureus, UniProt P0A0K8+P20831); assay: Inhibition of Staphylococcus aureus wild type DNA gyrase; assay type: protein-complex assay
# Staphylococcus aureus [16] = assay: Selectivity ratio of IC50 for Staphylococcus aureus DNA topoisomerase 4 Ser80Phe mutant to IC50 for Staphylococcus aureus wild type DNA topoisomerase 4
# Staphylococcus aureus [17] = assay: Selectivity ratio of IC50 for Staphylococcus aureus DNA gyrase Ser84Leu mutant to IC50 for Staphylococcus aureus wild type DNA gyrase
SMILES,MIC (Streptococcus mitis) [ng/mL],MIC [6] [µg/mL],MIC (Enterococcus faecalis [7]) [µg/mL],MIC (Escherichia coli) [ng/mL],MIC (Streptococcus pyogenes) [ng/mL],MIC (Streptococcus pneumoniae [8]) [ng/mL],MIC (Pseudomonas aeruginosa) [µg/mL],MIC (Staphylococcus aureus [10]) [ng/mL],MIC (Klebsiella pneumoniae) [µg/mL],solubility [15] [µg/mL],MIC50 (Enterococcus faecalis [1]) [µg/mL],MIC90 (Enterococcus faecalis [1]) [µg/mL],MIC50 (Staphylococcus aureus [2]) [µg/mL],MIC90 (Staphylococcus aureus [2]) [µg/mL],MIC50 (Enterococcus faecium) [µg/mL],MIC90 (Enterococcus faecium) [µg/mL],IC50 [4] [µg/mL],IC50 [5] [µg/mL],Activity (Mus musculus [11]),Activity (Mus musculus [13]),other results
CC(=O)NC[C@H]1CN(c2ccc(N3CCOCC3)c(F)c2)C(=O)O1 [LINEZOLID],–,–,–,–,–,–,–,–,–,–,2,2,1,1,2,2,–,–,–,–,MIC50 (Streptococcus pneumoniae [3]): 1 µg/mL; MIC90 (Streptococcus pneumoniae [3]): 2 µg/mL
COc1c(N2C[C@@H]3CCCN[C@@H]3C2)c(F)cc2c(=O)c(C(=O)O)cn(C3CC3)c12 [MOXIFLOXACIN],100,0.1,0.2,6,200,25,0.78,13,0.05,–,16,32,2,32,4,32,1.36,24.2,–,–,MIC50 (Staphylococcus aureus [9]): 4 µg/mL; MIC80 (Staphylococcus aureus [9]): 32 µg/mL; MIC90 (Staphylococcus aureus [9]): 32 µg/mL
COc1c(N2CC[C@@H](C3(N)CCC3)C2)ccc2c(=O)c(C(=O)O)cn([C@@H]3C[C@@H]3F)c12,3,0.012,0.05,12,6,6,0.39,≤ 3,0.05,604,–,–,–,–,–,–,–,–,Non-toxic,Toxic,Activity (Mus musculus [12]): Toxic; Activity (Mus musculus [14]): Non-toxic
C[C@H]1COc2c(N3CCN(C)CC3)c(F)cc3c(=O)c(C(=O)O)cn1c23.C[C@H]1COc2c(N3CCN(C)CC3)c(F)cc3c(=O)c(C(=O)O)cn1c23.O [LEVOFLOXACIN],–,–,–,–,–,–,–,–,–,–,–,–,–,–,–,–,2.67,57.1,–,–,IC50 (DNA gyrase subunit A): > 1380 µM; MIC50 (Staphylococcus aureus [9]): 16 µg/mL; MIC80 (Staphylococcus aureus [9]): > 64 µg/mL; MIC90 (Staphylococcus aureus [9]): > 64 µg/mL
COc1c(N2CCNC(C)C2)c(F)cc2c(=O)c(C(=O)O)cn(C3CC3)c12 (stereo not drawn) [GATIFLOXACIN],200,0.2,0.39,6,390,200,0.78,50,0.05,–,16,32,4,64,4,32,1.85,22.5,–,–,IC50 (DNA gyrase): 8.58 µM; Ratio IC50 (Staphylococcus aureus [16]): 12.2; IC50 (DNA gyrase subunit A): 765 µM; Ratio IC50 (Staphylococcus aureus [17]): 89.1; MIC50 (Streptococcus pneumoniae [3]): 0.5 µg/mL; MIC90 (Streptococcus pneumoniae [3]): 0.5 µg/mL

# More lines, main results first:
MIC (Streptococcus mitis) [ng/mL],MIC [6] [µg/mL],MIC (Enterococcus faecalis [7]) [µg/mL],MIC (Escherichia coli) [ng/mL],MIC (Streptococcus pyogenes) [ng/mL],MIC (Streptococcus pneumoniae [8]) [ng/mL],MIC (Pseudomonas aeruginosa) [µg/mL],MIC (Staphylococcus aureus [10]) [ng/mL],MIC (Klebsiella pneumoniae) [µg/mL],solubility [15] [µg/mL],SMILES,MIC50 (Enterococcus faecalis [1]) [µg/mL],MIC90 (Enterococcus faecalis [1]) [µg/mL],MIC50 (Staphylococcus aureus [2]) [µg/mL],MIC90 (Staphylococcus aureus [2]) [µg/mL],MIC50 (Enterococcus faecium) [µg/mL],MIC90 (Enterococcus faecium) [µg/mL],IC50 [4] [µg/mL],IC50 [5] [µg/mL],Activity (Mus musculus [11]),Activity (Mus musculus [13]),other results
3,≤ 0.003,0.025,≤ 3,3,≤ 3,0.39,≤ 3,0.025,180,COc1c(N2CC[C@@H](C3(N)CCC3)C2)c(F)cc2c(=O)c(C(=O)O)cn([C@@H]3C[C@@H]3F)c12,–,–,–,–,–,–,–,–,–,Toxic,–
3,≤ 0.003,0.012,≤ 3,3,≤ 3,0.2,≤ 3,0.012,221,COc1c(N2CC[C@@H](C3(N)CC3)C2)c(F)cc2c(=O)c(C(=O)O)cn([C@@H]3C[C@@H]3F)c12,–,–,–,–,–,–,–,–,Toxic,Toxic,Activity (Mus musculus [14]): Toxic
3,0.006,0.025,≤ 3,3,≤ 3,0.2,≤ 3,0.012,173,CNC1([C@@H]2CCN(c3c(F)cc4c(=O)c(C(=O)O)cn([C@@H]5C[C@@H]5F)c4c3OC)C2)CC1,–,–,–,–,–,–,–,–,Toxic,Toxic,Activity (Mus musculus [14]): Toxic
